In PMC11280390, “Synthesis of Nitrostyrylthiazolidine-2,4-dione Derivatives Displaying Antileishmanial Potential” (Pharmaceuticals, 2024):
Like-named read-outs stand apart in the source and are kept apart here.

Assays:
HepG2 cell line = assay: In vitro cytotoxicity on the human hepatic HepG2 cell line (MTT, 72 h); details: for Selectivity INDEX (SI = CC50/EC50): HepG2 CC50 / L. infantum promastigote EC50; for CC50: read-out: HepG2 Cytotoxicity CC50, HepG2, 72 h, MTT
Description: (§1) HepG2 cell line (hepatocarcinoma cell line purchased from ATCC, ref HB-8065) was maintained at 37 °C, 5% CO2 with 90% humidity in MEM supplemented with 10% fetal bovine serum, 1% L-glutamine (200 mM) and penicillin (100 U/mL)/streptomycin ([…]) (complete MEM medium). The tested molecules’ cytotoxicity was assessed according to the method of Mosmann with slight modifications. Briefly, 5 × 10^3 cells in 100 μL of complete medium were inoculated into each well of 96-well plates and incubated at 37 °C in a humidified 5% CO2. After 24 h incubation, 100 μL of medium with various product concentrations dissolved in DMSO (final concentration less than 0.5% v/v) were added and the plates were incubated for 72 h at 37 °C. Triplicate assays were performed for each sample. Each plate well was then microscope-examined to detect possible precipitate formation before the medium was aspirated from the wells. Then, 100 μL of MTT (3-(4,5-dimethyl-2-thiazolyl)-2,5-diphenyl-2H-tetrazolium bromide) solution (0.5 mg/mL in medium without FCS) were then added to each well. Cells were incubated for 2 h at 37 °C, following which the MTT solution was removed and DMSO (100 μL) was added to dissolve the resulting blue formazan crystals. Plates were shaken vigorously (700 rpm) for 10 min. The absorbance was measured at 570 nm with 630 nm as reference wavelength using a TECAN Infinite F-200 spectrophotometer (Tecan Trading AG, Männedorf, Switzerland). DMSO was used as blank and doxorubicin (purchased from Sigma Aldrich, Saint Louis, MI, USA) as positive control. Cell viability was calculated as a percentage of control (cells incubated without compound). […] CC50 values represent the mean value calculated from three separate experiments.

[1] = as above; details: human, HepG2 cells (hepatocarcinoma cell line, ATCC HB-8065), HepG2 Cytotoxicity CC50, HepG2, 72 h, MTT
Description: as §1

[2] = system: Leishmania infantum promastigotes; assay: In vitro antileishmanial activity on L. infantum promastigotes (MTT, 72 h); format: cell-based; details: L. infantum promastigotes, MTT, read-out: Anti-L. infantum Promastigote Activity EC50
Description: Luciferase-expressing Leishmania infantum was kindly provided by Professor Thierry Lang of the Institut Pasteur. L. infantum promastigotes were routinely grown at 27 °C in Schneider’s Drosophila Medium (Dominique […] SAS, Bernolsheim, France) supplemented with 10% fetal calf serum, 2% human urine, sodium pyruvate 0.04 mM, hemin 0.1 µg/mL, HEPES 5 mM, streptomycin 100 µg/mL, penicillin 100 U/mL, L-glutamine 2 mM (culture medium). The in vitro evaluation of the antileishmanial activity of the tested compound on L. infantum promastigotes forms was assessed according to the Mosmann protocol with slight modifications. […] Appropriate controls treated with DMSO, Miltefosine, Amphotericin B and Fexinidazole sulfone (reference drugs purchased from Sigma-Aldrich, Saint-Louis, MO, USA) were added to each set of experiments. The plates were incubated at 27 °C for 72 h, Then, each plate-well was microscope-analyzed to detect any precipitate formation. Afterward, 20 µL of MTT (3-(4,5-dimethylthiazol-2-yl)-2,5-diphenyltetrazolium bromide) (Sigma-Aldrich, Saint-Louis, MI, USA) solution (5 mg/mL in PBS) were added to each well and incubated at 27 °C for 4 h. The reaction was then stopped by the addition of 100 µL of 10% sodium dodecyl sulfate—50% isopropanol. Plates were shaken vigorously at 400 rpm for 10 min. […] EC50 values represent the mean value calculated from at least three separate experiments.

SMILES	Selectivity INDEX (SI = CC50/EC50) (HepG2 cell line)	CC50 at 72 h [1] [µM]	EC50 ([2]; Leishmania infantum) [µM]	EC50 [2] [µM]	melting point [°C]	CC50 (HepG2 cell line) [µM]
O=C1NC(=O)/C(=C/c2cccc([N+](=O)[O-])c2)S1 [Compound 4]	6.8	190 ± 18.6	28 ± 7.15			
O=C1NC(=O)/C(=C/c2ccc([N+](=O)[O-])cc2)S1 [Compound 5]	9.4	137.1 ± 1.22		14.6 ± 2.9		
CCOC(=O)CN1C(=O)S/C(=C\c2ccccc2)C1=O [Compound 12a]	9.4	194 ± 8.92	20.6 ± 5.86			
CCOC(=O)CN1C(=O)S/C(=C\c2ccccc2[N+](=O)[O-])C1=O [Compound 12b, Ethyl ((Z)-5-(2-nitrobenzylidene)thiazolidine-2,4-dion-3-yl)acetate]	1.6	39.4 ± 7.09	24.1 ± 5.14		81 to 83	
CCOC(=O)CN1C(=O)S/C(=C\c2cccc([N+](=O)[O-])c2)C1=O [Compound 12c, Ethyl ((Z)-5-(3-nitrobenzylidene)thiazolidine-2,4-dion-3-yl)acetate]	>22.7	101 to 125	5.51 ± 1.29			> 125
CCOC(=O)CN1C(=O)S/C(=C\c2ccc([N+](=O)[O-])cc2)C1=O [Compound 12d, Ethyl ((Z)-5-(4-nitrobenzylidene)thiazolidine-2,4-dion-3-yl)acetate]	>10.8	101 to 125	11.6 ± 2.37		136 to 138	> 125
N#CCN1C(=O)S/C(=C\c2ccc([N+](=O)[O-])cc2)C1=O [Compound 14d, (Z)-2-(5-(4-Nitrobenzylidene)thiazolidine-2,4-dion-3-yl)acetonitrile]	4.4	109 ± 11	24.8 ± 6.09		193 to 195	
NC(=O)CN1C(=O)S/C(=C\c2cccc([N+](=O)[O-])c2)C1=O [Compound 15c, (Z)-2-(5-(3-Nitrobenzylidene)thiazolidine-2,4-dion-3-yl)acetamide]	>4.7	> 62.5	13.3 ± 7.75		256 to 258	
O=C(CN1C(=O)S/C(=C\c2ccccc2[N+](=O)[O-])C1=O)c1ccccc1 [Compound 16b, (Z)-5-(2-Nitrobenzylidene)-3-(2-oxo-2-phenylethyl)thiazolidine-2,4-dione]	2.0	11 ± 2.28	5.57 ± 1.28		156 to 158	
O=C(CN1C(=O)S/C(=C\c2cccc([N+](=O)[O-])c2)C1=O)c1ccccc1 [Compound 16c, (Z)-5-(3-Nitrobenzylidene)-3-(2-oxo-2-phenylethyl)thiazolidine-2,4-dione]	>3.9	> 12.5	3.22 ± 0.94		160 to 162	
O=C(CN1C(=O)S/C(=C\c2ccccc2[N+](=O)[O-])C1=O)Nc1ccccc1 [Compound 23b, (Z)-2-(5-(2-Nitrobenzylidene)thiazolidine-2,4-dion-3-yl)-N-phenylacetamide]	1.9	22.3 ± 0.59	11.6 ± 3.43		186 to 188	
Cc1ccc(NC(=O)CN2C(=O)S/C(=C\c3ccccc3[N+](=O)[O-])C2=O)cc1 [Compound 24b, (Z)-N-(4-Methylphenyl)-2-(5-(2-nitrobenzylidene)thiazolidine-2,4-dion-3-yl) acetamide]	1.2	30.9 ± 3.97	24.8 ± 6.68		181 to 183	
O=C(O)CN1C(=O)S/C(=C\c2cccc([N+](=O)[O-])c2)C1=O [Compound 29, (Z)-2-(5-(3-Nitrobenzylidene)thiazolidin-2,4-dion-3-yl)acetic Acid]		> 250	> 50		191 to 193	
